According to PubChem BioAssay (NCI):
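These data come from cells grown in 96-well plates and exposed to compound for 48 hours at five concentrations. TGI is the concentration that stops growth completely.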

What was measured:
Experiment in all cases: inhibition of tumour cell growth, NCI panel, 48 h
DU-145 prostate = test system: DU-145 prostate
BT-549 breast = test system: BT-549 breast
MALME-3M melanoma = test system: MALME-3M melanoma
COLO 205 colon = test system: COLO 205 colon
HCT-116 colon = test system: HCT-116 colon
NCI-H460 lung = test system: NCI-H460 lung
MDA-MB-231 breast = test system: MDA-MB-231 breast
786-0 renal = test system: 786-0 renal
SNB-19 CNS = test system: SNB-19 CNS
SK-MEL-5 melanoma = test system: SK-MEL-5 melanoma
SN12C renal = test system: SN12C renal
HCC-2998 colon = test system: HCC-2998 colon
RXF 393 renal = test system: RXF 393 renal
MDA-MB-435 = test system: MDA-MB-435
MDA-N = test system: MDA-N
NCI-H226 lung = test system: NCI-H226 lung
OVCAR-8 ovarian = test system: OVCAR-8 ovarian

| Compound | TGI (DU-145 prostate) | TGI (BT-549 breast) | TGI (MALME-3M melanoma) | TGI (COLO 205 colon) | TGI (HCT-116 colon) | TGI (NCI-H460 lung) | TGI (MDA-MB-231 breast) | TGI (786-0 renal) | TGI (SNB-19 CNS) | TGI (SK-MEL-5 melanoma) | TGI (SN12C renal) | TGI (HCC-2998 colon) | TGI (RXF 393 renal) | TGI (MDA-MB-435) | TGI (MDA-N) | TGI (NCI-H226 lung) | TGI (OVCAR-8 ovarian) |
| --- | --- | --- | --- | --- | --- | --- | --- | --- | --- | --- | --- | --- | --- | --- | --- | --- | --- |
| Cc1nn(C(=O)c2ccc(Cl)cc2)c2c1C(c1ccccc1)SC(N)=N2 (configuration not stated) | > 10 µM | > 10 µM | > 10 µM | > 10 µM | > 10 µM | > 10 µM | > 10 µM | > 10 µM | > 10 µM | > 10 µM | > 10 µM | > 10 µM | > 10 µM | > 10 µM | > 10 µM | > 10 µM | > 10 µM |
| N#Cc1nc(N)c(C#N)[nH]1 | > 100 µM | > 100 µM | > 100 µM | > 100 µM | > 100 µM | > 100 µM | > 100 µM | > 100 µM | > 100 µM | > 100 µM | > 100 µM | > 100 µM | > 100 µM | > 100 µM | > 100 µM | > 100 µM | > 100 µM |
| Cc1ccc([N+](=O)[O-])cc1S(=O)(=O)Nc1ccc(C(=O)/C=C/c2ccccc2)cc1 | 29.5 µM | 33.7 µM | 39.5 µM | 44.9 µM | 29.3 µM | 37.8 µM | 32.3 µM | 33.1 µM | 39.6 µM | 32.1 µM | 43.2 µM | 32.1 µM | 25 µM | 36.6 µM | 42.8 µM | 98.4 µM | 50.2 µM |
| CCOC(=O)C(=O)N=Nc1c(O)[nH]c2ccccc12 | > 100 µM | > 100 µM | > 100 µM | > 100 µM | > 100 µM | > 100 µM | > 100 µM | > 100 µM | > 100 µM | > 100 µM | > 100 µM | > 100 µM | > 100 µM | > 100 µM | > 100 µM | > 100 µM | > 100 µM |
| CCN(CC)CCOc1ccc(N2Cc3cc(OC)c(OC)cc3C2=O)cc1 | > 100 µM | > 100 µM | > 100 µM | > 100 µM | > 100 µM | > 100 µM | > 100 µM | > 100 µM | > 100 µM | > 100 µM | > 100 µM | > 100 µM | > 100 µM | > 100 µM | > 100 µM | > 100 µM | > 100 µM |
| Brc1ccc(N=C/C=C(\Nc2ccc(Br)cc2)C23CC4CC(CC(C4)C2)C3)cc1 | 35.4 µM | 49.7 µM | 42.8 µM | 47.3 µM | 23.8 µM | > 68.8 µM | 31.9 µM | 28.9 µM | > 100 µM | 26.6 µM | > 64.2 µM | 35.8 µM | 29 µM | 24.7 µM | 34.9 µM | > 100 µM | > 81.3 µM |
| Cc1ccc(C2=NN=C3C(c4ccccc4)=Nc4ccccc4N3C2)cc1 | 32.3 µM | > 100 µM | 47.2 µM | > 100 µM | > 83.7 µM | 18.6 µM | > 100 µM | > 50.7 µM | > 78.3 µM | 32.8 µM | > 100 µM | > 100 µM | 33.7 µM | > 100 µM | > 100 µM | > 100 µM | > 100 µM |
| C=CC[C@H](O)[C@@](NC(=O)OCc1ccccc1)(Sc1ccc(C)cc1)C(F)(F)F | > 100 µM | 29.4 µM | > 100 µM | 39.1 µM | 60.5 µM | > 100 µM | 59.8 µM | 32.7 µM | > 100 µM | > 100 µM | 45.8 µM | > 100 µM | 53 µM | 84 µM | 46.6 µM | 35.9 µM | 35.3 µM |
| CC1(C)CCCCC1/C=C/C(CC(O)(C(F)(F)F)C(F)(F)F)=N\Nc1ccc([N+](=O)[O-])cc1[N+](=O)[O-] (configuration not stated) | 13.4 µM | 1.99 µM | 48.3 µM | 10.8 µM | 6.2 µM | 6.73 µM | 9.62 µM | 4.7 µM | 19 µM | 1.24 µM | 31.7 µM | > 100 µM | 1.85 µM | 7.9 µM | 11.9 µM | 2.81 µM | 14.7 µM |
| Cc1ccc(NC(=O)C23CC4CC(CC(C4)C2)C3)c(C(=O)NNC(=O)c2ccc(Cl)cc2)c1 | > 100 µM | > 100 µM | 59.4 µM | > 100 µM | > 100 µM | 69.2 µM | 50.3 µM | 59 µM | 8.91 µM | 42.6 µM | > 100 µM | 30.2 µM | 39.8 µM | 37.4 µM | 52.1 µM | 62.6 µM | > 100 µM |
| CC(C)(Cl)C(Br)CCC(=CCBr)CBr (mixture of isomers) | 21.3 µM | 7.5 µM | 4.74 µM | 4.91 µM | 3.66 µM | 13.6 µM | 3.51 µM | 3.17 µM | 13.1 µM | 7.77 µM | 8.39 µM | 14 µM | 15.7 µM | 3.56 µM | 6.13 µM | 51.9 µM | 9.25 µM |
| CCOc1ccc(-n2c(=O)c3nn4c(=O)n(-c5ccc(OCC)cc5)c(=O)c4nn3c2=O)cc1 | > 100 µM | > 100 µM | > 100 µM | > 100 µM | > 100 µM | > 100 µM | > 100 µM | > 100 µM | > 100 µM | > 100 µM | > 100 µM | > 100 µM | > 100 µM | > 100 µM | > 100 µM | > 100 µM | > 100 µM |
| N=C(N)SCCSC(=N)N | > 100 µM | > 100 µM | > 100 µM | > 100 µM | > 100 µM | > 100 µM | > 100 µM | > 100 µM | > 100 µM | > 100 µM | > 100 µM | > 100 µM | > 100 µM | > 100 µM | > 100 µM | > 100 µM | > 100 µM |
| CCc1nc2c(n1CC)C(=O)c1ccccc1C2=O | > 100 µM | > 100 µM | 34.3 µM | 43.4 µM | > 10 µM | > 100 µM | 49.4 µM | > 100 µM | > 100 µM | > 10 µM | > 100 µM | > 100 µM | 51 µM | 32.2 µM | > 10 µM | > 100 µM | > 100 µM |
| O=c1[nH]ncc2[nH]c(-c3ccccc3)cc12 | > 100 µM | > 100 µM | > 100 µM | > 100 µM | > 100 µM | > 100 µM | > 100 µM | > 100 µM | > 100 µM | 60.5 µM | > 100 µM | > 100 µM | 96.5 µM | > 100 µM | > 100 µM | > 100 µM | > 100 µM |
| CNC(=O)Nn1c(SC)nc2ccccc21 | > 100 µM | > 100 µM | > 100 µM | > 100 µM | > 100 µM | > 100 µM | > 100 µM | > 100 µM | > 100 µM | > 100 µM | > 100 µM | > 100 µM | > 100 µM | > 100 µM | > 100 µM | > 100 µM | > 100 µM |
